In ChEMBL document CHEMBL4507327 (2021):
pIC50: −log10 of the molar value.

Key:
[1] = molecular target: Maternal embryonic leucine zipper kinase (Homo sapiens, UniProt Q14680); assay: MELK(MELKLGF1) Takeda global kinase panel
[2] = molecular target: Serine/threonine-protein kinase N1 (Homo sapiens, UniProt Q16512); assay: PKN1 [PRK1(PKN1LGY1)] Takeda global kinase panel
[3] = molecular target: Histamine H1 receptor (Homo sapiens) (UniProt P35367); conditions: Compound concentration 10.0 uM
[4] = molecular target: Histamine H3 receptor (Homo sapiens) (UniProt Q9Y5N1); conditions: Compound concentration 10.0 uM
[5] = molecular target: T1, Alpha-1A adrenergic receptor (Homo sapiens) (UniProt P35348); assay: Inhibition of Adrenergic alpha1A at compound concentration of 10.0 uM in the Eurofins-Panlabs radioligand binding assay (Eurofins_assay_203110); parameters: ligand concentration 0.25 nM; conditions: Rattus norvegicus; Compound concentration 10.0 uM
T1 sequence (whole entry): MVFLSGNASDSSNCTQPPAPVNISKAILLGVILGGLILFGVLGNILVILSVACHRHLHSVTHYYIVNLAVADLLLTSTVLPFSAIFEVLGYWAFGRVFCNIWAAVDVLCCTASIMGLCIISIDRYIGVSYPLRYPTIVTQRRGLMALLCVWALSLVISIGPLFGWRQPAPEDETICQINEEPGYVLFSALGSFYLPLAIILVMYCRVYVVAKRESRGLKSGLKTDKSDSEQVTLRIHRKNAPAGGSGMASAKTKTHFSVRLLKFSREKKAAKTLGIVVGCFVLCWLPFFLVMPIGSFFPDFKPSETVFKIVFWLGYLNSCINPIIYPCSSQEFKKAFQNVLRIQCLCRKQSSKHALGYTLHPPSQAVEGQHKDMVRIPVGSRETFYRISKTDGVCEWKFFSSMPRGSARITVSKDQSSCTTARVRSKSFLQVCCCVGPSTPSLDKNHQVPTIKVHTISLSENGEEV

[6] = molecular target: GABA-A receptor; anion channel (Rattus norvegicus) (UniProt O09028+P15431+P18506+P18508+P19969+P20236+P23574+P23576+P28471+P28473+P30191+P62813+P63079+P63138+Q91ZM7+Q9ES14); conditions: Compound concentration 10.0 uM
[7] = molecular target: Dual specificity tyrosine-phosphorylation-regulated kinase 4 (Homo sapiens, UniProt Q9NR20); assay: DYRK4(DYR4LHY1) Takeda global kinase panel
[8] = molecular target: Interleukin-1 receptor-associated kinase 3 (Homo sapiens, UniProt Q9Y616); assay: IRAK3(IRK3PFE1) Takeda global kinase panel
[9] = molecular target: 3-phosphoinositide-dependent protein kinase 1 (Homo sapiens, UniProt O15530); assay: PDK1(PDP1LGA1) Takeda global kinase panel
[10] = molecular target: Serine/threonine-protein kinase Nek2 (Homo sapiens, UniProt P51955); assay: Nek2(NEK2LHFA) Takeda global kinase panel
[11] = molecular target: Receptor tyrosine-protein kinase erbB-4 (Homo sapiens, UniProt Q15303); assay: HER4(ERB4CGF1) Takeda global kinase panel
[12] = molecular target: G protein-coupled receptor kinase 4 (Homo sapiens, UniProt P32298); assay: GRK4(GRK4LGRI) Takeda global kinase panel
[13] = molecular target: Voltage-dependent N-type calcium channel subunit alpha-1B (Homo sapiens) (UniProt Q00975); assay: Inhibition of Calcium Channel N-Type at 10 µM in the Eurofins-Panlabs radioligand binding assay (Eurofins_assay_216000); conditions: Rattus norvegicus; Compound concentration 10.0 uM
[14] = molecular target: Casein kinase I isoform epsilon (Homo sapiens, UniProt P49674); assay: CK1epsilon(CS1ELGI5) Takeda global kinase panel
[15] = molecular target: Serine/threonine-protein kinase ICK (Homo sapiens, UniProt Q9UPZ9); assay: ICK(ICK1LGP1) Takeda global kinase panel
[16] = molecular target: Serine/threonine-protein kinase PLK3 (Homo sapiens, UniProt Q9H4B4); assay: PLK3(PLK3PHY1) Takeda global kinase panel
[17] = molecular target: B1 bradykinin receptor (Homo sapiens) (UniProt P46663); conditions: Compound concentration 10.0 uM
[18] = molecular target: Dual specificity protein kinase CLK3 (Homo sapiens, UniProt P49761); assay: CLK3(CLK3LGY1) Takeda global kinase panel
[19] = molecular target: D(1A) dopamine receptor (Homo sapiens) (UniProt P21728); conditions: Compound concentration 10.0 uM
[20] = molecular target: G protein-coupled receptor kinase 3 (Homo sapiens, UniProt P35626); assay: BARK2 [GRK3(ADR2LGG5)] Takeda global kinase panel
[21] = molecular target: Microtubule-associated serine/threonine-protein kinase 1 (Homo sapiens, UniProt Q9Y2H9); assay: MAST1(MAS1LGE5) Takeda global kinase panel
[22] = molecular target: Serine/threonine-protein kinase VRK2 (Homo sapiens, UniProt Q86Y07); assay: VRK2(VRK2LGRI) Takeda global kinase panel
[23] = molecular target: Serine/threonine-protein kinase Nek5 (Homo sapiens, UniProt Q6P3R8); assay: Nek5(NEK5LGRD) Takeda global kinase panel
[24] = molecular target: Melatonin receptor type 1A (Homo sapiens) (UniProt P48039); assay: Inhibition of Melatonin MT1 at 10 µM in the Eurofins-Panlabs radioligand binding assay (Eurofins_assay_251600); parameters: ligand concentration 0.05 nM; conditions: Compound concentration 10.0 uM
[25] = molecular target: Casein kinase I isoform gamma-1 (Homo sapiens, UniProt Q9HCP0); assay: CK1gamma1(C1G1LGI1) Takeda global kinase panel
[26] = molecular target: Eukaryotic translation initiation factor 2-alpha kinase 3 (Homo sapiens, UniProt Q9NZJ5); assay: PERK [PEK(EIK3CGQ1)] Takeda global kinase panel
[27] = molecular target: Cyclin-dependent kinase 1 (Homo sapiens, UniProt P06493); assay: CDC2 [CDK1(CDK1CGS1)] Takeda global kinase panel
[28] = molecular target: Glucocorticoid receptor (Homo sapiens) (UniProt P04150); conditions: Compound concentration 10.0 uM
[29] = molecular target: Casein kinase I isoform alpha-like (Homo sapiens, UniProt Q8N752); assay: CK1alpha2(C1ALLGI5) Takeda global kinase panel
[30] = molecular target: Mitogen-activated protein kinase 13 (Homo sapiens, UniProt O15264); assay: p38delta(MP13LGP1) Takeda global kinase panel
[31] = molecular target: Mitogen-activated protein kinase 15 (Homo sapiens, UniProt Q8TD08); assay: ERK7(MP15LGY1) Takeda global kinase panel
Activin receptor type-2A = Activin receptor type-2A (Homo sapiens, UniProt P27037); assay: ACtR2(AC2ALGE1) Takeda global kinase panel
[32] = molecular target: Myosin light chain kinase family member 4 (Homo sapiens, UniProt Q86YV6); assay: SgK085(SG85LGY1) Takeda global kinase panel

Sequence of Melatonin receptor type 1A (Homo sapiens) (P48039 whole entry, canonical isoform): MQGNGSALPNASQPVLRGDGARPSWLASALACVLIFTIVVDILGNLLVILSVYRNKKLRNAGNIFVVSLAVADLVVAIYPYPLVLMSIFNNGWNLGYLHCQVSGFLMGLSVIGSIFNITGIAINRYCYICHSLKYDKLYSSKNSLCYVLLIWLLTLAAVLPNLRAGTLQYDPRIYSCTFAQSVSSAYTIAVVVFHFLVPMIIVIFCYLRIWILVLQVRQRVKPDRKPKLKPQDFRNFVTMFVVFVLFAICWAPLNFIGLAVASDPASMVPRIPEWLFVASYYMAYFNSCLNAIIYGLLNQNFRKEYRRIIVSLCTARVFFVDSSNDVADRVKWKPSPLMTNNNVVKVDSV
Sequence of G protein-coupled receptor kinase 3 (P35626 whole entry): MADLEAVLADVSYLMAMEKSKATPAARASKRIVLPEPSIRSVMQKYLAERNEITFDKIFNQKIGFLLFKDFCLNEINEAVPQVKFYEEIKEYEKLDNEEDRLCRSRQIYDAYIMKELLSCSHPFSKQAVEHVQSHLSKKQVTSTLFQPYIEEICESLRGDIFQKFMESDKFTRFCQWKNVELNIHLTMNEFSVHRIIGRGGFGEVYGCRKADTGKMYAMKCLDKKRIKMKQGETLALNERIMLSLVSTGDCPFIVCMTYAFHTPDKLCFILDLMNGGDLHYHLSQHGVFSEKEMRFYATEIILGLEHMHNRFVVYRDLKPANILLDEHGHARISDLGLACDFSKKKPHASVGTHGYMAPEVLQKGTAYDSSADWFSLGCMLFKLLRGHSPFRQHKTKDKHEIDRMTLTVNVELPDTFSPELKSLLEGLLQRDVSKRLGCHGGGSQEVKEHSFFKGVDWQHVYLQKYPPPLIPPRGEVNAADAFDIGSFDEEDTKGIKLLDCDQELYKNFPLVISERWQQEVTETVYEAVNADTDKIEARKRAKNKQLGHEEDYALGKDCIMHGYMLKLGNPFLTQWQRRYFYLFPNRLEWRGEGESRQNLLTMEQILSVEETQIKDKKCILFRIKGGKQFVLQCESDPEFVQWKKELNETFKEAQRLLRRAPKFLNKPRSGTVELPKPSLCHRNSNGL
Sequence of Glucocorticoid receptor (Homo sapiens) (P04150 whole entry, canonical isoform): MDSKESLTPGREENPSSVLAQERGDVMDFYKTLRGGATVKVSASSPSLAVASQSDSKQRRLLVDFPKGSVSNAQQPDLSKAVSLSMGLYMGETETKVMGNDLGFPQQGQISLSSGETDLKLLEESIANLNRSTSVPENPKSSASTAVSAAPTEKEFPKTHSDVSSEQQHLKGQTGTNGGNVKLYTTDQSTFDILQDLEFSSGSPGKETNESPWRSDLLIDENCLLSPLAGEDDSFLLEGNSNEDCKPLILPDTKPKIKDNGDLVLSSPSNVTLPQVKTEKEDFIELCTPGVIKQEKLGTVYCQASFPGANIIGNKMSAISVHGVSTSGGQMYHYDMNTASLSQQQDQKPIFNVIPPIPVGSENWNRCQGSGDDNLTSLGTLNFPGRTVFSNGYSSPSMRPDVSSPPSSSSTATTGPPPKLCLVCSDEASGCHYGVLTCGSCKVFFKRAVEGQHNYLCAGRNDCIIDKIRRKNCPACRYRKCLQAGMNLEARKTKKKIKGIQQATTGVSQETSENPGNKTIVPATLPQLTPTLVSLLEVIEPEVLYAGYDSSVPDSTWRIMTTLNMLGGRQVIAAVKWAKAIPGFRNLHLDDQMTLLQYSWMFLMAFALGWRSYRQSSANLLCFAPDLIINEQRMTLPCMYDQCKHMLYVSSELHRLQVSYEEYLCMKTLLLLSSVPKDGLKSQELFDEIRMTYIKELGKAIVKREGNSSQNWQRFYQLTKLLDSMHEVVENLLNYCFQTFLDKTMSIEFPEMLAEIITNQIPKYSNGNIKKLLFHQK
Sequence of Histamine H3 receptor (Homo sapiens) (Q9Y5N1 whole entry): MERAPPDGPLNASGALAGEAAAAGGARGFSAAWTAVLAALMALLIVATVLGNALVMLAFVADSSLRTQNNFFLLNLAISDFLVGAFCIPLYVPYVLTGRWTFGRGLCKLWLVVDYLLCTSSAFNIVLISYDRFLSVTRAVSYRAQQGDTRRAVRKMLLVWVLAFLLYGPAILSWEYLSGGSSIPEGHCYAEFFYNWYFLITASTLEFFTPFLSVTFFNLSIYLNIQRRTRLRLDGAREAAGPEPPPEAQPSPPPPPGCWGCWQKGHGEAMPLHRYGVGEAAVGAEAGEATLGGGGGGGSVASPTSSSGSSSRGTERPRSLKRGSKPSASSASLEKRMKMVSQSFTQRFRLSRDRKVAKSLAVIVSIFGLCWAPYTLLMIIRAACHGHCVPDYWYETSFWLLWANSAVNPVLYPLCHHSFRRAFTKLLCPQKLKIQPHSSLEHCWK
Sequence of Casein kinase I isoform gamma-1 (Q9HCP0 whole entry, canonical isoform): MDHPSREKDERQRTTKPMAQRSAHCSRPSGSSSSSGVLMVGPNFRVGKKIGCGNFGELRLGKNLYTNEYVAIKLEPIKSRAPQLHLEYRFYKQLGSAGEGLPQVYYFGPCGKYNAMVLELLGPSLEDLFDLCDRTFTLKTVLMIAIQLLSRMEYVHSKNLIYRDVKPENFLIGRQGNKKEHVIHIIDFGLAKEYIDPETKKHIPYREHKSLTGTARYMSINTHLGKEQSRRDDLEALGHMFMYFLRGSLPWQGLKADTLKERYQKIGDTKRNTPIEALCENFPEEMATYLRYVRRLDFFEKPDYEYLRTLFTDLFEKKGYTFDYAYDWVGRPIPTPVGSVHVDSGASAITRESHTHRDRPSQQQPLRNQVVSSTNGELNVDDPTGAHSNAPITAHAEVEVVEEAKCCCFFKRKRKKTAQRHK
Sequence of Cyclin-dependent kinase 1 (P06493 whole entry): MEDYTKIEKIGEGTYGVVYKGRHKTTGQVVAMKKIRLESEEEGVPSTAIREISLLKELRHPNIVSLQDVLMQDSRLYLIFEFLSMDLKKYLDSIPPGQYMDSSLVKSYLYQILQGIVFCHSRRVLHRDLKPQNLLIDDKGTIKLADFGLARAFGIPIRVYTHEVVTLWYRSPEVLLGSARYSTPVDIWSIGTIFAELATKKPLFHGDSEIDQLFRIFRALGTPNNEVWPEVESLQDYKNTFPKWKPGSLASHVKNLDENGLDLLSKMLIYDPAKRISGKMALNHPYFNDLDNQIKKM
Sequence of B1 bradykinin receptor (Homo sapiens) (P46663 whole entry): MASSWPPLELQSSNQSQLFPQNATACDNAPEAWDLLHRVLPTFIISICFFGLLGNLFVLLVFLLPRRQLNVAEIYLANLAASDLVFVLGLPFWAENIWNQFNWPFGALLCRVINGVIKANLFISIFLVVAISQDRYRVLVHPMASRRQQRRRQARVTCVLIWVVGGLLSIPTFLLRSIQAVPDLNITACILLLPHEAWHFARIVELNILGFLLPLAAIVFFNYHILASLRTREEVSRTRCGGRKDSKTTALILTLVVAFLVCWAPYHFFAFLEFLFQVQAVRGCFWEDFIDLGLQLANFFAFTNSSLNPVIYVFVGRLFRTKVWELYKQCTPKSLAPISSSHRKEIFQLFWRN
Sequence of Serine/threonine-protein kinase N1 (Q16512 whole entry): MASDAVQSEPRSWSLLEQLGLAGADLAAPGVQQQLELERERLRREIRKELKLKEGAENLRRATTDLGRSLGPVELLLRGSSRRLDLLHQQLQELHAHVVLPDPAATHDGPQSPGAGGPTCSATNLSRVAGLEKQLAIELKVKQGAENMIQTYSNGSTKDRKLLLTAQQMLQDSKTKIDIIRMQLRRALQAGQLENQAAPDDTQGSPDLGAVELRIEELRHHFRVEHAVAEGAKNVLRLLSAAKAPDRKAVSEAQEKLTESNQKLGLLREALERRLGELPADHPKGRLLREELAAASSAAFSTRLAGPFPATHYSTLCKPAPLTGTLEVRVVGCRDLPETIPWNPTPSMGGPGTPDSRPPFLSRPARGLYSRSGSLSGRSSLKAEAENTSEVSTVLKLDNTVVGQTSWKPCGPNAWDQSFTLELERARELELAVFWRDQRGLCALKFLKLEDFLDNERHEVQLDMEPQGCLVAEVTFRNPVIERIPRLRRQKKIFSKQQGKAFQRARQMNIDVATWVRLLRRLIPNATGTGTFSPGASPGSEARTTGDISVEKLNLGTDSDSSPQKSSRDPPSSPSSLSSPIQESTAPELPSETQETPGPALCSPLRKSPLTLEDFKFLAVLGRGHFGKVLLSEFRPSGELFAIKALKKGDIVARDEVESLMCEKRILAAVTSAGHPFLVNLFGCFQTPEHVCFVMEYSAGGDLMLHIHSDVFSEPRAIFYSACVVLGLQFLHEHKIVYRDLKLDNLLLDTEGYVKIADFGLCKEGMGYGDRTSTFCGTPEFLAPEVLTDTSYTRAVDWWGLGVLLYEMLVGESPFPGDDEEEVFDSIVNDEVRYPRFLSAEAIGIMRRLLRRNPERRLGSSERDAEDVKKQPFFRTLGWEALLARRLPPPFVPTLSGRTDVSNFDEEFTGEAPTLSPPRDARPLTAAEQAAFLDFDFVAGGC
Sequence of Mitogen-activated protein kinase 15 (Q8TD08 whole entry): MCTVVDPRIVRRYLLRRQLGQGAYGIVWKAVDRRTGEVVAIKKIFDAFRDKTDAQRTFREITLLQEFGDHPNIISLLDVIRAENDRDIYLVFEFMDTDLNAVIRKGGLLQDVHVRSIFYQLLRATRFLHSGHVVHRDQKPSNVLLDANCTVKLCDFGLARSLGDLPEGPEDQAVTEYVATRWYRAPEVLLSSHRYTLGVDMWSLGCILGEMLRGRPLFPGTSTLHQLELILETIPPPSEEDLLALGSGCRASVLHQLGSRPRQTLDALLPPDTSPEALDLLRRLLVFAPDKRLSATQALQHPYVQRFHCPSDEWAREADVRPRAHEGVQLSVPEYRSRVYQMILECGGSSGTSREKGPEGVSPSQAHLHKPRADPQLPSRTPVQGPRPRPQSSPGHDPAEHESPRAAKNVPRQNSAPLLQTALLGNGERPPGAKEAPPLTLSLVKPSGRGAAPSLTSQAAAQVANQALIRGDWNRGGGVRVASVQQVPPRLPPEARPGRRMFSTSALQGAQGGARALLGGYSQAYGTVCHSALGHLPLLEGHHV

Compound | pIC50 [1] | pIC50 [2] | inhibition [3] | inhibition [4] | inhibition [5] | inhibition [6] | pIC50 [7] | pIC50 [8] | pIC50 [9] | pIC50 [10] | pIC50 [11] | pIC50 [12] | inhibition [13] | pIC50 [14] | pIC50 [15] | pIC50 [16] | inhibition [17] | pIC50 [18] | inhibition [19] | pIC50 [20] | other results
CN1C(=O)[C@@H](N2CCc3cn(Cc4ccccc4)nc3C2=O)COc2ccccc21 [TP-030-1] | 6.00 | 6.00 | 3% | 4% | -1% | 8% | 6.00 | 6.00 | 6.00 | 6.00 | 6.00 | 6.00 | -2% | 6.00 | 6.00 | 6.00 | 2% | 6.00 | -4% | 6.00 | pIC50 [21]: 6.00; pIC50 [22]: 6.00; pIC50 [23]: 6.00; inhibition [24]: 45%; pIC50 [25]: 6.00; pIC50 [26]: 6.00; pIC50 [27]: 6.00; inhibition [28]: 5%; pIC50 [29]: 6.00; pIC50 [30]: 6.00; pIC50 [31]: 6.00; pIC50 (Activin receptor type-2A): 6.00; pIC50 [32]: 6.00
CN1C(=O)[C@@H](N2CCc3cn(CC4CCS(=O)(=O)CC4)nc3C2=O)COc2ccccc21 [TP-030n] | 6.00 | 6.00 | 8% | -5% | 1% | 12% | 6.00 | 6.00 | 6.00 | 6.00 | 6.00 | 6.00 | 2% | 6.00 | 6.00 | 6.00 | 9% | 6.00 | 7% | 6.00 | pIC50 [21]: 6.00; pIC50 [22]: 6.00; pIC50 [23]: 6.00; inhibition [24]: 9%; pIC50 [25]: 6.00; pIC50 [26]: 6.00; pIC50 [27]: 6.00; inhibition [28]: 3%; pIC50 [29]: 6.00; pIC50 [30]: 6.00; pIC50 [31]: 6.00; pIC50 (Activin receptor type-2A): 6.00; pIC50 [32]: 6.00
